The nature of the data set: Thermal HBr Measurement Test (thermal stability). The data set is classed as physicochemical. Conditions: heated about 15 minutes at about 220° C. under nitrogen; average of duplicate; lower = more thermally stable. As for the experimental part: The thermal stability of N,2-3-dibromopropyl-4,5-dibromohexahydrophthalimde (“compound (I)”) used in accordance with the present invention was evaluated using the Thermal HBr Measurement Test.
First, a sample of from about 0.5 to about 1.0 g flame retardant was weighed into a three neck 50 mL round bottom flask. Teflon tubing was then attached to one of the openings in the flask. Nitrogen was fed into the flask through the Teflon tubing at a flow rate of about 0.5 SCFH. A small reflux condenser was attached to another opening on the flask. The third opening was plugged. An about 50 vol % solution of glycol in water at a temperature of about 85° C. was run through the reflux condenser. Viton tubing was attached to the top of the condenser and to a gas-scrubbing bottle. Two more bottles were attached in series to the first. All three bottles had about 90 mL of about 0.1 N NaOH solutions. After assembling the apparatus, the nitrogen was allowed to purge through the system for about 2 minutes. The round bottom flask was then placed into an oil bath at about 220° C. and the sample was heated for about 15 minutes. The flask was then removed from the oil bath and the nitrogen was allowed to purge for about 2 minutes. The contents of the three gas scrubbing bottles were transferred to a 600 mL beaker. The bottles and viton tubing were rinsed into the beaker. […]

Molecules are shown by their SMILES.

From patent US20080096989A1, “Flame Retardant Expanded Polystyrene Foam Compositions” (ALBEMARLE CORPORATION, priority 2004, published 2008) come the findings set out here.

Consider `O=C1C2CC(Br)C(Br)CC2C(=O)N1CC(Br)CBr` (stereo not shown) [compound I, N,2-3-dibromopropyl-4,5-dibromohexahydrophthalimde], for which the “HBr (ppm)” value is 2,058 ppm.
